Columns and labels:
UVB-induced erythema = test: erythema and temperature response to low-fluence UVB on temple skin of subjects with rosacea; format: in vivo, human
Experimental: 30 minutes later, a 1 cm area of previously treated skin was irradiated with a low 300 J/m^2 UVB. Erythema was measured before UVB and at various times post-UVB irradiation in blinded fashion with a mexameter and temperature using a thermal imaging camera. […] Values represent the change in erythema from baseline for each subject at 24 hours post-UVB. […] The boxes represent the area treated with UVB. Insets into the photographs are thermal camera images of the UVB-treated skin, with white areas on the thermal imaging camera denoting increased temperature.

human skin explants = test: PDT-induced MVP release in human skin explants ex vivo; format: cell-based; details: 100 μL of 5 mM added post-PDT, 4 h
Experimental: (§1) For the data shown in FIG. 14, HaCaT keratinocytes were treated with sham (no treatment), 0.1% ethanol vehicle control (VEH), 100 nM TPA, 100 nM CPAF, 1 mM 5-ALA for 4 hours, or 5-ALA followed by various fluences (2.5-20 J/cm^2) of blue light or blue light alone. Levels of MVPs released into supernatants were measured at 4 hours. […] For the data shown in FIG. 15, human skin explants were treated with sham, 100 μL vehicle (90% ethanol+10% DMSO) (VEH), 1 μM TPA, 1 µM CPAF, 1 mM 5-ALA for 4 hours, blue light or 5-ALA+blue light at 20 J/cm^2. After four hours, duplicate 6-mm punch biopsies were obtained, weighed, and MVPs were measured. The data are the mean±SE from 3-4 separate experiments conducted in duplicate. * Denotes statistically significant (P <0.05) changes from sham values.
(§2) Supernatants were collected at 4 hours and MVP measured. The data are the mean±SE MVP fold change from sham-treated values. For the data shown in FIG. 17, human skin explants were treated as in FIG. 15, with the exception that in some experiments 100 μL of 5 mM IMIP was added post-PDT. MVP were measured in duplicate 6-mm punch biopsies obtained 4 hours post-treatment.

HaCaT keratinocytes = test: PDT (5-ALA + blue light) MVP release in HaCaT keratinocytes; format: cell-based, human; set-up: PDT-induced MVP release: dose or concentration left out as unconfirmed; details: HaCaT keratinocytes, imipramine added immediately after PDT, supernatants 4 h
Experimental: PDT results in acute cellular destruction and inflammation and photosensitivity, as well as delayed immunosuppression. […] Thus, it was of further interest whether experimental PDT of HaCaT keratinocytes generated MVP in vitro. To that end, HaCaT cells were pretreated with 5-ALA alone, or blue light alone, or a 4 hour incubation of 5-ALA in the dark followed by various fluences of blue light, and MVP were measured in the supernatants at 4 hours post blue light. 100 nM CPAF and TPA were used as positive controls for MVP release.
as §1, §2

PDT-induced MVP release = PDT-induced MVP release in skin and plasma of mice; format: in vivo; details: wild-type mice, PDT 20 J/cm^2 blue light, 100 μl of 5 mM topical immediately after, 4 h
Experimental: Next, the role of PAF and aSMase in PDT-induced MVP release was assessed. […] Next, the ability of topical PDT to generate MVP in vivo in mice, and the role of aSMase in this process, was determined. […] Two approaches were used to determine if PDT-induced MVP involved aSMase.
The role of aSMase in PDT-mediated MVP release was evaluated in a murine system. For the data shown in FIG. 18, wild-type mice were treated with either sham, 100 μl of 5 mM IMIP, or 90% polyethylene glycol: 10% DMSO vehicle, or 1 μM TPA (as a positive control for MVP release), or PDT using 20 J/cm^2 blue light. Immediately following PDT, the treated areas were given vehicle or imipramine. At 4 hours post-treatment, the mice were euthanized and MVP were measured from duplicate 6-mm punch biopsies and plasma. The data are mean±SD fold increase in MVP normalized to tissue weight/plasma volume. * Denotes statistically significant (P<0.05) changes from sham; #statistically significant (P<0.05) changes from comparator denoted by line by two-way ANOVA; NS not statistically significant.
To confirm the role of aSMase in PDT-induced MVP generation, PDT effects were evaluated in the absence of aSMase was evaluated in a murine system. For the data shown in FIG. 19, wild-type or aSMase-deficient (Smpd1−/−) mice underwent sham or PDT using 20 J/cm^2 blue light. At 4 hours post-treatment, the mice were euthanized and MVP were measured from duplicate 6-mm punch biopsies and plasma. The data are mean±SD fold increase in MVP normalized to tissue weight/plasma volume. * Denotes statistically significant (P<0.05) changes from sham; NS not statistically significant.

With `CN(C)CCCN1c2ccccc2CCc2ccccc21` [Imipramine] the “skin temperature (thermal imaging) after UVB” value (UVB-induced erythema; one representative rosacea subject, 4% imipramine + UVB versus vehicle + UVB) was “less temperature signature”, the “erythema response to UVB” value (UVB-induced erythema; subjects with rosacea, 0.1 ml 4% imipramine 30 minutes before 300 J/m^2 UVB, 24 hours post-UVB) was “blocks the erythema response” and the “PDT-induced MVP release” value (human skin explants) was “blocked PDT-induced MVP release”. For the same molecule, the “PDT-induced MVP release” value (HaCaT keratinocytes) was “blocked PDT-induced MVP release” and the “PDT-induced MVP release in skin and plasma” value (PDT-induced MVP release) was “blocked MVP release”.

Source: patent US20240245703A1, “TOPICAL APPLICATION OF AGENTS TO REDUCE SUN SENSITIVITY AND IMPROVE TOPICAL PHOTODYNAMIC THERAPY” (Wright State University, priority 2021, published 2024)
